Source: ChEMBL document CHEMBL1125973, “Tricyclic quinoxalines as ligands for the strychnine-insensitive glycine site” (Bioorg Med Chem Lett, 1991)

What was measured:
[1] = biological target: Glutamate receptor ionotropic AMPA (Homo sapiens, UniProt P42261+P42262+P42263+P48058); experiment: Compound was evaluated for its binding affinity towards Ionotropic glutamate receptor AMPA in presence of [3H]- AMPA; format: protein-complex assay
[2] = biological target: Glutamate receptor ionotropic, NMDA 1 (Rattus norvegicus, UniProt P35439); experiment: Compound was evaluated for its binding affinity towards strychnine - insensitive glycine site of NMDA receptor in presence of [3H]- Gly

| Structure (SMILES) | IC50 [1] [µM] | IC50 [2] [µM] |
| --- | --- | --- |
| Oc1nc2cc(Cl)c(Cl)cc2n2cnnc12 | 8 | 7 |
| Oc1nc2cc(Cl)c(Cl)cc2n2ccnc12 | 7 | 6 |
| Oc1nc2cc(Cl)c(Cl)cc2nc1O [2,3-DIHYDROXY-6,7-DICHLOROQUINOXALINE] | 27 | 4 |
| O=c1[nH]c2ccccc2n2ccnc12 | – | > 100 |
| O=c1[nH]c2ccccc2n2nnnc12 | – | > 100 |

Now from value to compound:

| IC50 [1] [µM] | IC50 [2] [µM] | Structure (SMILES) |
| --- | --- | --- |
| – | > 100 | CCCCn1c(=O)c(=O)[nH]c2cc(Cl)c(Cl)cc21 |
| > 100 | 77 | Oc1nc2cc(Cl)c(Cl)cc2n2nnnc12 |
| 21 | 96 | CCn1c(=O)c(=O)[nH]c2cc(Cl)c(Cl)cc21 |
| 36 | 17 | Cn1c(=O)c(=O)[nH]c2cc(Cl)c(Cl)cc21 |
